Measured values taken from patent US20130296455A1, “NOVEL COMPOUND, DYE AND COLORED PHOTOSENSITIVE COMPOSITION” (ADEKA CORPORATION, priority 2011, published 2013).

Key:
Type in all cases: physicochemical
[1] = Evaluation of heat-resistance by TG-DTA
Description: Compounds Nos. 1, 2, 5 and 46 and Comparative Compounds Nos. 1 and 2 obtained above were analyzed by TG-DTA to thereby measure the melting points and temperatures at 10% weight loss. The results are shown in [Table 4].

[2] = Evaluation of absorption wavelength property in CHCl3 solution; conditions: maximum absorption wavelength in CHCl3 solution
Description: (§1) Bis(4-formylphenyl)phenylamine (0.90 g, 3 mmol), ethyl cyanoacetate (0.75 g, 6.6 mmol) and ethanol (1.26 g) were added to a reaction container and heated to 50° C. under stirring. Triethylamine (0.06 g, 0.6 mmol) was then added dropwise, a reaction was conducted at 50° C. for 2 hours, and the reactant was cooled to room temperature. The reaction solution was subjected to liquid separation with ethyl acetate/water, the organic layer was dried under a reduced pressure, and the precipitated solid was washed with hexane to thereby give 1.13 g (yield 95.2%) of a yellow powder. That the obtained yellow powder was the intended substance was confirmed by ^1H-NMR and IR. Furthermore, the solubility and absorption wavelength properties (absorption wavelength λmax and absorption coefficient ∈) of compound No. 1 were measured. PGMEA was added dropwise to 0.1 g of the compound under stirring, and the solubility was defined as the concentration at the time when PGMEA had completely dissolved the compound. Furthermore, the absorption wavelength properties were measured in a CHCl3 solution.
The maximum absorption wavelengths of Compounds Nos. 1, 2, 5 and 46 and Comparative Compounds Nos. 1 and 2 obtained above were each evaluated in a CHCl3 solution. The results are shown in [Table 5].

Solubility in PGMEA = conditions: PGMEA added dropwise to 0.1 g of compound; concentration when completely dissolved
Description: as §1

[3] = Evaluation of heat-resistance by calcination of coating of colored alkali-developable photosensitive composition; conditions: for relative intensity 230° C., 30 min: absorbance of coating at λmax after calcination 230° C.×30 min, before calcination (after exposure to light) = 100; for λmax: coating of colored alkali-developable photosensitive composition on glass substrate
Description: No. 3 obtained above, and comparative colored alkali-developable photosensitive composition No. 1 were each applied to a glass substrate under conditions of 410 rpm×7 sec, and dried on a hot plate (90° C., 90 sec). The obtained coating was exposed to light by a ultrahigh pressure mercury lamp (150 mJ/cm^2). The coating after the exposure to light was calcined under conditions of 230° C.×30 min. The absorbance of the coating before the calcination (after the exposure to light) and the absorbance of the coating after the calcination at the maximum absorption wavelength (λmax) of the compound (dye) as used were measured, and considering the absorption of the coating before the calcination (after the exposure to light) as 100, the absorbance of the coating after the calcination closer to 100 was evaluated to give higher heat-resistance. The results are shown in [Table 6].

SMILES	temperatures at 10% weight loss [1] [°C]	λmax [2] [nm]	solubility (Solubility in PGMEA) [wt %]	relative intensity 230° C., 30 min [3]	λmax [3] [nm]
CCOCCOC(=O)/C(C#N)=C/c1ccc(N(CC)CC)cc1 [Comparative Compound No. 2, reference compound]	252	432	–	–	–
CCOC(=O)/C(C#N)=C/c1ccc(N(c2ccc(/C=C(\C#N)C(=O)OCC)cc2)c2ccc(/C=C(\C#N)C(=O)OCC)cc2)cc1 [Compound No. 2]	370	452	3.5	98.5	452
CCOC(=O)/C(C#N)=C/c1ccc(N2CCN(c3ccc(/C=C(\C#N)C(=O)OCC)cc3)CC2)cc1 [Compound No. 5]	345	423	0.1	–	–

More lines, now with the values ahead:

temperatures at 10% weight loss [1] [°C]	λmax [2] [nm]	solubility (Solubility in PGMEA) [wt %]	relative intensity 230° C., 30 min [3]	λmax [3] [nm]	SMILES
346	430	0.5	99.9	436	CCOC(=O)/C(C#N)=C/c1ccc(N(CC)CCCCCCN(CC)c2ccc(/C=C(\C#N)C(=O)OCC)cc2)cc1 [Compound No. 46]
259	430	–	12.5	430	CCOC(=O)/C(C#N)=C/c1ccc(N(CC)CC)cc1 [Comparative Compound No. 1, reference compound]
355	460	4.6	94.9	458	CCOC(=O)/C(C#N)=C/c1ccc(N(c2ccccc2)c2ccc(/C=C(\C#N)C(=O)OCC)cc2)cc1 [Compound No. 1]
